Experimental data as given in patent US8802711B2, “TRPV1 antagonists” (AbbVie Inc., priority 2011, dated 2014).

Key:
[1] = molecular target: T1, human TRPV1 receptor (hTRPV1) (Homo sapiens (Human), UniProt Q8NER1); assay: Acid activation assay (pH 5.0, FLIPR intracellular Ca2+); type: cell-based; details: Table 1; 37.5 μM antagonist, percentage of the maximal pH 5.0-induced response remaining; read-out: hTRPV1 H+ (max % remain)
How it was run: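 Antagonism of acid-evoked Ca2+ influx measured by FLIPR Calcium-4 fluorescence after a pH 5.0 DPBS/MES stimulus, with compounds preincubated 3 min over 12 half-log concentrations. Cells: stable hTRPV1-expressing 1321N1 line, dye-loaded 90–120 min in the dark at 25 °C.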

[2] = molecular target: T1, human TRPV1 receptor (hTRPV1); assay: Capsaicin activation assay (FLIPR intracellular Ca2+); type: cell-based; details: Table 1; inhibition of capsaicin-induced intracellular Ca2+ increase, HEK293 cells expressing human TRPV1; read-out: hTRPV1 cap IC50
How it was run: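 Antagonism measured as [Ca2+]i fluorescence on FLIPR Tetra: compounds given 3 min ahead of capsaicin, added as 200 nM (4×), to dye-loaded hTRPV1-HEK293 cells. Response taken as baseline-subtracted peak, normalized to the 50 nM capsaicin control; 12-point one-third-log titrations.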

T1 sequence (Q8NER1 whole entry): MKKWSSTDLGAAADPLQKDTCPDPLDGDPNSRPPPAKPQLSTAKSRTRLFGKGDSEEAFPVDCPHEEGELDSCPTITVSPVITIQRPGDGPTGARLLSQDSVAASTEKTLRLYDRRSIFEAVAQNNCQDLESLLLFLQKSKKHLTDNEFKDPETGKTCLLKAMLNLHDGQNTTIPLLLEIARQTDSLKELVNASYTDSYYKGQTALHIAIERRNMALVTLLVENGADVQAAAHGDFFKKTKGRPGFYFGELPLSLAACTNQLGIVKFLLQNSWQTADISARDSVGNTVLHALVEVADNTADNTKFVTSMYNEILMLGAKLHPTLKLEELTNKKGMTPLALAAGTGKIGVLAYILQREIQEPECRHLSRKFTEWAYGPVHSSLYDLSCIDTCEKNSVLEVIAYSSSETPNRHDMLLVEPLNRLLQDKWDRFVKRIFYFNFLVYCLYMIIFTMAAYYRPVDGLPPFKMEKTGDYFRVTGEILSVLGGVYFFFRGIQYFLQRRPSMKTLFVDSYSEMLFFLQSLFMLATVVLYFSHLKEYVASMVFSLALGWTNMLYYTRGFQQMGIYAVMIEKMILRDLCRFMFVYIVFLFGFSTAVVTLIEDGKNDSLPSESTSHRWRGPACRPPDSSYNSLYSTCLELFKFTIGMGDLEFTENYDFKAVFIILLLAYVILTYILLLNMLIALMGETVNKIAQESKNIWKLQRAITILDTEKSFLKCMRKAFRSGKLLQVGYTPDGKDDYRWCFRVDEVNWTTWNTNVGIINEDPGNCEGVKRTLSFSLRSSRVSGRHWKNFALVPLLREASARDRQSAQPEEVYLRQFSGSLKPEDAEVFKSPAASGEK

| remaining activity at 37.5 µM [1] [%] | IC50 [2] [nM] | SMILES |
| --- | --- | --- |
| 5 | 10 | O=C(Nc1cccc2[nH]ncc12)N[C@H]1CC[C@H](c2ccccc2F)C1 [Example 62, 1-[(1S,3S)-3-(2-fluorophenyl)cyclopentyl]-3-(1H-indazol-4-yl)urea] |
| 38 | 122 | O=C(Nc1cccc2[nH]ncc12)N[C@H]1C=C[C@@H](c2ccccc2)C1 [Example 63, 1-(1H-indazol-4-yl)-3-[(1R,4S)-4-phenylcyclopent-2-en-1-yl]urea] |
| 12 | 8 | O=C(Nc1cccc2[nH]ncc12)N[C@@H]1CC[C@H](c2cccc(F)c2)C1 [Example 65, 1-[(1R,3S)-3-(3-fluorophenyl)cyclopentyl]-3-(1H-indazol-4-yl)urea] |
| 18 | 11 | O=C(Nc1cccc2[nH]ncc12)N[C@H]1CC[C@@H](c2ccccc2F)C1 [Example 67, 1-[(1S,3R)-3-(2-fluorophenyl)cyclopentyl]-3-(1H-indazol-4-yl)urea] |
| 41 | 48 | O=C(Nc1cccc2[nH]ncc12)N[C@@H]1CC[C@@H](c2cccc(F)c2)C1 [Example 68, 1-[(1R,3R)-3-(3-fluorophenyl)cyclopentyl]-3-(1H-indazol-4-yl)urea] |
| 2 | 12 | O=C(Nc1cccc2[nH]ncc12)N[C@H]1CC[C@@H](c2cccc(F)c2)C1 [Example 69, 1-[(1S,3R)-3-(3-fluorophenyl)cyclopentyl]-3-(1H-indazol-4-yl)urea] |
| 22 | 5.6 | Cc1cc2c(NC(=O)N[C@@H]3CC[C@H](c4ccccc4F)C3)c(F)ccc2cn1 [Example 70, 1-(6-fluoro-3-methylisoquinolin-5-yl)-3-[(1R,3S)-3-(2-fluorophenyl)cyclopentyl]urea] |
| 15 | 8.6 | Cc1cc2c(NC(=O)N[C@H]3CC[C@H](c4ccccc4F)C3)c(F)ccc2cn1 [Example 71, 1-(6-fluoro-3-methylisoquinolin-5-yl)-3-[(1S,3S)-3-(2-fluorophenyl)cyclopentyl]urea] |
| 22 | 80 | C[C@@]1(c2ccccc2)CC[C@H](NC(=O)Nc2cccc3[nH]ncc23)C1 [Example 72, 1-(1H-indazol-4-yl)-3-[(1S,3R)-3-methyl-3-phenylcyclopentyl]urea] |
| 11 | 164 | C[C@@]1(c2ccccc2)CC[C@@H](NC(=O)Nc2cccc3[nH]ncc23)C1 [Example 73, 1-(1H-indazol-4-yl)-3-[(1R,3R)-3-methyl-3-phenylcyclopentyl]urea] |
| 44 | 3.5 | Cc1cc2c(NC(=O)N[C@H]3CC[C@H](c4cccc(F)c4)C3)c(F)ccc2cn1 [Example 74, 1-(6-fluoro-3-methylisoquinolin-5-yl)-3-[(1S,3S)-3-(3-fluorophenyl)cyclopentyl]urea] |
| 16 | 21 | Cc1cc2c(NC(=O)N[C@@H]3CC[C@@](C)(c4ccccc4)C3)c(F)ccc2cn1 [Example 75, 1-(6-fluoro-3-methylisoquinolin-5-yl)-3-[(1R,3R)-3-methyl-3-phenylcyclopentyl]urea] |
| 9 | 2 | Cc1cc2c(NC(=O)N[C@@H]3CC[C@H](c4cccc(F)c4)C3)c(F)ccc2cn1 [Example 76, 1-(6-fluoro-3-methylisoquinolin-5-yl)-3-[(1R,3S)-3-(3-fluorophenyl)cyclopentyl]urea] |
| 56 | > 37500 | CN1C(=O)CCc2ccc(NC(=O)N[C@@H]3CC[C@H](c4ccccc4)C3)cc21 [Example 77, 1-(1-methyl-2-oxo-1,2,3,4-tetrahydroquinolin-7-yl)-3-[(1R,3S)-3-phenylcyclopentyl]urea] |
| 75 | 11 | Cn1c(=O)ccc2c(NC(=O)N[C@H]3CC[C@@H](c4cccc(F)c4)C3)cccc21 [Example 79, 1-[(1S,3R)-3-(3-fluorophenyl)cyclopentyl]-3-(1-methyl-2-oxo-1,2-dihydroquinolin-5-yl)urea] |
| 55 | 10 | Cn1c(=O)ccc2c(NC(=O)N[C@H]3CC[C@@H](c4ccccc4F)C3)cccc21 [Example 80, 1-[(1S,3R)-3-(2-fluorophenyl)cyclopentyl]-3-(1-methyl-2-oxo-1,2-dihydroquinolin-5-yl)urea] |
| 66 | 2.3 | Cn1c(=O)ccc2c(NC(=O)N[C@@H]3CC[C@@H](c4ccccc4F)C3)cccc21 [Example 81, 1-[(1R,3R)-3-(2-fluorophenyl)cyclopentyl]-3-(1-methyl-2-oxo-1,2-dihydroquinolin-5-yl)urea] |

| remaining activity at 37.5 µM [1] [%] | IC50 [2] [nM] | SMILES |
| --- | --- | --- |
| 12 | 3.3 | Cc1cc2c(NC(=O)N[C@@H]3CC[C@@H](c4ccccc4F)C3)c(F)ccc2cn1 [Example 82, 1-(6-fluoro-3-methylisoquinolin-5-yl)-3-[(1R,3R)-3-(2-fluorophenyl)cyclopentyl]urea] |
| 48 | 5.3 | Cc1cc2c(NC(=O)N[C@H]3CC[C@@H](c4ccccc4F)C3)c(F)ccc2cn1 [Example 83, 1-(6-fluoro-3-methylisoquinolin-5-yl)-3-[(1S,3R)-3-(2-fluorophenyl)cyclopentyl]urea] |
| 13 | 5.4 | Cc1cc2c(NC(=O)N[C@@H]3CC[C@@H](c4cccc(F)c4)C3)c(F)ccc2cn1 [Example 84, 1-(6-fluoro-3-methylisoquinolin-5-yl)-3-[(1R,3R)-3-(3-fluorophenyl)cyclopentyl]urea] |
| 21 | 8.9 | Cc1cc2c(NC(=O)N[C@H]3CC[C@@H](c4cccc(F)c4)C3)c(F)ccc2cn1 [Example 85, 1-(6-fluoro-3-methylisoquinolin-5-yl)-3-[(1S,3R)-3-(3-fluorophenyl)cyclopentyl]urea] |
| 0 | 80 | O=C(Nc1cccc2c1C[C@@H](O)C2)N[C@@H]1CC[C@@H](c2cccc(F)c2)C1 [Example 86, 1-[(1R,3R)-3-(3-fluorophenyl)cyclopentyl]-3-[(2S)-2-hydroxy-2,3-dihydro-1H-inden-4-yl]urea] |
| 17 | 248 | O=C(Nc1cccc2c1C[C@@H](O)C2)N[C@H]1CC[C@@H](c2cccc(F)c2)C1 [Example 87, 1-[(1S,3R)-3-(3-fluorophenyl)cyclopentyl]-3-[(2S)-2-hydroxy-2,3-dihydro-1H-inden-4-yl]urea] |
| 16 | 20 | O=C(Nc1cccc2c1C[C@@H](O)C2)N[C@@H]1CC[C@@H](c2ccccc2F)C1 [Example 88, 1-[(1R,3R)-3-(2-fluorophenyl)cyclopentyl]-3-[(2S)-2-hydroxy-2,3-dihydro-1H-inden-4-yl]urea] |
| 15 | 88 | O=C(Nc1cccc2c1C[C@@H](O)C2)N[C@H]1CC[C@@H](c2ccccc2F)C1 [Example 89, 1-[(1S,3R)-3-(2-fluorophenyl)cyclopentyl]-3-[(2S)-2-hydroxy-2,3-dihydro-1H-inden-4-yl]urea] |
| 54 | 109 | O=C(Nc1cccc2c1C[C@H](O)C2)N[C@@H]1CC[C@@H](c2cccc(F)c2)C1 [Example 90, 1-[(1R,3R)-3-(3-fluorophenyl)cyclopentyl]-3-[(2R)-2-hydroxy-2,3-dihydro-1H-inden-4-yl]urea] |
| 63 | 338 | O=C(Nc1cccc2c1C[C@H](O)C2)N[C@H]1CC[C@@H](c2cccc(F)c2)C1 [Example 91, 1-[(1S,3R)-3-(3-fluorophenyl)cyclopentyl]-3-[(2R)-2-hydroxy-2,3-dihydro-1H-inden-4-yl]urea] |
| 66 | 79 | O=C(Nc1cccc2c1C[C@H](O)C2)N[C@@H]1CC[C@@H](c2ccccc2F)C1 [Example 92, 1-[(1R,3R)-3-(2-fluorophenyl)cyclopentyl]-3-[(2R)-2-hydroxy-2,3-dihydro-1H-inden-4-yl]urea] |
| 55 | 93 | O=C(Nc1cccc2c1C[C@H](O)C2)N[C@H]1CC[C@@H](c2ccccc2F)C1 [Example 93, 1-[(1S,3R)-3-(2-fluorophenyl)cyclopentyl]-3-[(2R)-2-hydroxy-2,3-dihydro-1H-inden-4-yl]urea] |
| 46 | 14 | CN1C(=O)CCc2c(NC(=O)N[C@@H]3CC[C@H](c4ccccc4)C3)cccc21 [Example 94, 1-(1-methyl-2-oxo-1,2,3,4-tetrahydroquinolin-5-yl)-3-[(1R,3S)-3-phenylcyclopentyl]urea] |
| 34 | 58 | CN1C(=O)CCc2c(NC(=O)N[C@H]3CC[C@@H](c4ccccc4)C3)cccc21 [Example 95, 1-(1-methyl-2-oxo-1,2,3,4-tetrahydroquinolin-5-yl)-3-[(1S,3R)-3-phenylcyclopentyl]urea] |
| 46 | 69 | CN1C(=O)CCc2c(NC(=O)N[C@@H]3CC[C@@H](c4cccc(F)c4)C3)cccc21 [Example 97, 1-[(1R,3R)-3-(3-fluorophenyl)cyclopentyl]-3-(1-methyl-2-oxo-1,2,3,4-tetrahydroquinolin-5-yl)urea] |
| 32 | 54 | CN1C(=O)CCc2c(NC(=O)N[C@H]3CC[C@@H](c4cccc(F)c4)C3)cccc21 [Example 98, 1-[(1S,3R)-3-(3-fluorophenyl)cyclopentyl]-3-(1-methyl-2-oxo-1,2,3,4-tetrahydroquinolin-5-yl)urea] |
